Columns and labels:
[1] = Biodistribution studies incl. blocking experiments; assay type: in vivo; conditions: healthy BALB/c mice
Procedure: For biodistribution studies 6 week old female BALB/c mice (n=3) were injected with 0.1 nmol (100 μL, approx. 1 MBq) of labelled compound via the lateral tail vein and sacrificed after 10, 30, or 60 min by cervical dislocation. The mice were dissected, blood and organs (spleen, pancreas, stomach, intestine, liver, kidney, heart, lung, muscle, and bone) were weighed, and their activity measured in a γ-counter. For blocking experiments, mice were co-injected with 100 μL of a 277 mM Galactose/PBS solution. In case of [^68Ga]Ga-TRAP-GalNAc a 277 mM N-Acetylgalactose solution was used.

[2] = Partition coefficient (log D), n-Octanol/PBS; assay type: physicochemical
Procedure: The vials were vortexed for 5 min at 1,500 rpm and then centrifuged for 5 min at 20,000 rcf (Eppendorf Centrifuge 5424).

[3] = 30 min p.i., blocking with 277 mM galactose

Question: For `O=C(CCP(=O)(O)CN1CCN(CP(=O)(O)CCC(=O)NCc2cn([C@@H]3O[C@H](CO)[C@H](O)[C@H](O)[C@H]3O)nn2)CCN(CP(=O)(O)CCC(=O)NCc2cn([C@@H]3O[C@H](CO)[C@H](O)[C@H](O)[C@H]3O)nn2)CC1)NCc1cn(C2O[C@H](CO)[C@H](O)[C@H](O)[C@H]2O)nn1` (stereo partly drawn) [Galacto-TRAP], which “Biodistribution Liver” value [1, 3] is on record?
Answer: 3.24±0.2 % ID/g

Question: With `O=C(CCP(=O)([O-])CN1CCN(CP(=O)([O-])CCC(=O)NCc2cn([C@@H]3O[C@H](CO)[C@H](O)[C@H](O)[C@H]3O)nn2)CCN(CP(=O)([O-])CCC(=O)NCc2cn([C@@H]3O[C@H](CO)[C@H](O)[C@H](O)[C@H]3O)nn2)CC1)NCc1cn([C@@H]2O[C@H](CO)[C@H](O)[C@H](O)[C@H]2O)nn1.[68Ga+3]` [[^68Ga]Ga-Galacto-TRAP] as the compound, how does the “Biodistribution Femur” value ([1]; 10 min p.i.) read?
Answer: 1.11 ± 0.18 % ID/g

Question: And the “Biodistribution Heart” value ([1]; 10 min p.i.)?
Answer: 6.08 ± 0.51 % ID/g

Question: And the “Biodistribution Intestine” value ([1]; 10 min p.i.)?
Answer: 1.80 ± 0.16 % ID/g

Question: And the “Biodistribution Liver” value ([1]; 10 min p.i.)?
Answer: 12.2 ± 1.4 % ID/g

Question: And the “Biodistribution Lung” value ([1]; 10 min p.i.)?
Answer: 1.97 ± 0.07 % ID/g

Question: And the “Biodistribution Muscle” value ([1]; 10 min p.i.)?
Answer: 3.25 ± 0.27 % ID/g

Question: What about the “Biodistribution Pancreas” value ([1]; 10 min p.i.) of the same compound?
Answer: 1.20 ± 0.03 % ID/g

Question: What about the “Biodistribution Spleen” value ([1]; 10 min p.i.) of the same compound?
Answer: 5.58 ± 0.17 % ID/g

Question: What about the “Biodistribution Stomach” value ([1]; 10 min p.i.) of the same compound?
Answer: 1.17 ± 0.05 % ID/g

Question: What about the “Biodistribution Blood” value ([1]; 30 min p.i.) of the same compound?
Answer: 0.47 ± 0.16 % ID/g

Question: And the “Biodistribution Femur” value ([1]; 30 min p.i.)?
Answer: 0.44 ± 0.01 % ID/g

Question: And the “Biodistribution Heart” value ([1]; 30 min p.i.)?
Answer: 5.44 ± 0.75 % ID/g

Question: What about the “Biodistribution Intestine” value ([1]; 30 min p.i.) of the same compound?
Answer: 0.79 ± 0.15 % ID/g

Question: And the “Biodistribution Kidneys” value ([1]; 30 min p.i.)?
Answer: 0.88 ± 0.07 % ID/g

Question: What about the “Biodistribution Liver” value ([1]; 30 min p.i.) of the same compound?
Answer: 5.02 ± 1.08 % ID/g

Question: And the “Biodistribution Lung” value ([1]; 30 min p.i.)?
Answer: 0.75 ± 0.16 % ID/g

Question: What about the “Biodistribution Pancreas” value ([1]; 30 min p.i.) of the same compound?
Answer: 0.49 ± 0.07 % ID/g

Question: What about the “Biodistribution Spleen” value ([1]; 30 min p.i.) of the same compound?
Answer: 2.17 ± 0.54 % ID/g

Question: And the “Biodistribution Stomach” value ([1]; 30 min p.i.)?
Answer: 0.53 ± 0.05 % ID/g

Question: What about the “Biodistribution Blood” value [1, 3] of the same compound?
Answer: 0.43 ± 0.14 % ID/g

Question: And the “Biodistribution Femur” value [1, 3]?
Answer: 0.38 ± 0.06 % ID/g

Question: What about the “Biodistribution Heart” value [1, 3] of the same compound?
Answer: 3.24 ± 0.19 % ID/g

Question: What about the “Biodistribution Intestine” value [1, 3] of the same compound?
Answer: 0.67 ± 0.15 % ID/g

Question: What about the “Biodistribution Kidneys” value [1, 3] of the same compound?
Answer: 0.75 ± 0.11 % ID/g

Question: And the “Biodistribution Liver” value [1, 3]?
Answer: 5.10 ± 0.72 % ID/g

Question: What about the “Biodistribution Lung” value [1, 3] of the same compound?
Answer: 0.68 ± 0.08 % ID/g

Question: And the “Biodistribution Muscle” value [1, 3]?
Answer: 1.35 ± 0.16 % ID/g

Question: What about the “Biodistribution Pancreas” value [1, 3] of the same compound?
Answer: 0.43 ± 0.02 % ID/g

Question: And the “Biodistribution Spleen” value [1, 3]?
Answer: 1.84 ± 0.14 % ID/g

Question: And the “Biodistribution Stomach” value [1, 3]?
Answer: 0.48 ± 0.05 % ID/g

Question: What about the “Biodistribution Blood” value ([1]; 60 min p.i.) of the same compound?
Answer: 0.11 ± 0.03 % ID/g

Question: What about the “Biodistribution Femur” value ([1]; 60 min p.i.) of the same compound?
Answer: 0.10 ± 0.04 % ID/g

Question: What about the “Biodistribution Heart” value ([1]; 60 min p.i.) of the same compound?
Answer: 4.84 ± 0.66 % ID/g

Question: And the “Biodistribution Intestine” value ([1]; 60 min p.i.)?
Answer: 0.14 ± 0.02 % ID/g

Question: What about the “Biodistribution Kidneys” value ([1]; 60 min p.i.) of the same compound?
Answer: 0.60 ± 0.06 % ID/g

Question: And the “Biodistribution Lung” value ([1]; 60 min p.i.)?
Answer: 0.12 ± 0.01 % ID/g

Question: What about the “Biodistribution Muscle” value ([1]; 60 min p.i.) of the same compound?
Answer: 0.35 ± 0.05 % ID/g

Question: And the “Biodistribution Pancreas” value ([1]; 60 min p.i.)?
Answer: 0.12 ± 0.02 % ID/g

Question: And the “Biodistribution Spleen” value ([1]; 60 min p.i.)?
Answer: 0.52 ± 0.23 % ID/g

Question: What about the “Biodistribution Stomach” value ([1]; 60 min p.i.) of the same compound?
Answer: 0.11 ± 0.01 % ID/g

Question: What about the logD [2] of the same compound?
Answer: −4.16±0.09

— patent US20260151516A1, “NEW PET TRACER FOR IMAGING OF THE FUNCTIONAL HEPATIC RESERVE” (Medizinische Universität Innsbruck, priority 2022, published 2026)
